The source of these data is patent publication US7074778B2, “Asthma associated factors as targets for treating atopic allergies including asthma and related disorders” (Genaera Corporation, priority 1999, dated 2006).

In brackets after ≈: the same amount, converted by molar mass. Read-outs that look alike come from different tables or passages of the source.

In data set [1] the test system is mitogen or antigen stimulated murine or human lymphocytes. The experiment in a line: PBMC proliferation assay (tritiated thymidine incorporation). Conditions: for IC50: Homo sapiens, Lymphocyte. The data set is classed as cell-based. Here is the method:
(§1) Immunomodulatory 3-aminosteroids (FIGS. 3–7 and Table I) were identified in vitro based on their ability to inhibit homo- or hetero-typic aggregation and subsequent proliferation of mitogen or antigen stimulated murine or human lymphocytes. Human or mouse lymphocytes were isolated from peripheral blood by Ficoll-Hypaque as described (Stoeckert et al., (1990) Exp. Hematol. 18. 1164–1170). For mitogen stimulation, 1×10^5 cells per well were plated in varying amounts of 3-aminosteroid compounds and assayed for aggregation and proliferation after twelve hours of stimulation by PHA-PMA mitogens. […] For antigen stimulation, lymphocytes were isolated from BALBc mice which had been sensitized to Aspergillus fumigatus antigen for three weeks and plated at 1×10^5 cells per well with or without 100 units of Aspergillus fulmigatus antigen. Cells were grown for three days and then scored for cellular aggregates and proliferation as described above in the presence or absence of increasing amounts of Compound-B or analogue compounds. […] Similar results were obtained in assays using antigen mediated response to compounds (not shown). […] All of the active compounds shown in Table I as well as rational modifications of these compounds as depicted in FIGS. 8–10 are embodiments of the invention
(Uptake of a labelled nucleoside into DNA is a usual measure of proliferation.)

Data set [2] shares this test system. Kind of data set: Lymphocyte aggregation assay (PHA-PMA mitogen stimulated). Conditions: aggregates of greater than 100 cells, PHA-PMA stimulation; for minimal effective concentration: Homo sapiens, Lymphocyte, 12 h, read-out: Aggregation Assay Minimum Effective Conc. The data set is classed as cell-based. Here is the method: as §1
The next data set deals with D2 naive mice. Kind of data set: Bronchial hyperresponsiveness in D2 naive mice (APTI). It is filed as in vivo, mouse. The settings on record: ip, FIG. 14. Here is the method:
DBA2, C57BL6 or B6D2F1 mice, five to six weeks of age, were obtained from the National Cancer Institute or Jackson Laboratories. Animals were housed in high-efficiency particulate filtered air laminar flow hoods in a virus and antigen free facility and allowed free access to pelleted rodent chow and water for three to seven days prior to experimental manipulation. The animal facilities were maintained at 22° C. and the light:dark cycle is automatically controlled (10:14 hour cycle).
Phenotyping and efficacy of pretreatment. Animals either received no pretreatment or were sensitized by nasal aspiration of Aspergillus fumigatus antigen to assess the effect on bronchial hyperresponsiveness, bronchoalveolar lavage and serum IgE. Mice were challenged with Aspergillus or saline intranasally (Monday, Wednesday and Friday for three weeks) and phenotyped twenty-four hours after the last dose. The effect of pretreatment by aminosteroids was used to assess the effect of down-regulating the IL-9 pathway in mice. To determine the bronchoconstrictor response, respiratory system pressure was measured at the trachea and recorded before and during exposure to the drug. Mice were anesthetized and instrumented as previously described. (Kleeberger et al., (1990) Am. J. Physiol. 258, L313–320; Levitt et al., (1995) Clin. Exp. Allergy 25, 61–63; Ewart et al., (1995) J. Appl. Physiol. 79, 560–566). Airway responsiveness was measured to one or more of the following: 5-hydroxytryptamine, acetylcholine, atracurium or a substance-P analogue. A simple and repeatable measure of the change in peak inspiratory pressure following bronchoconstrictor challenge was used which has been termed the Airway Pressure Time Index (APTI). The APTI was assessed by the change in peak respiratory pressure integrated from the time of injection until the peak pressure returns to baseline or plateau.
Active compounds identified in vitro were tested in vivo for their ability to suppress airway hyperresponsiveness, lung eosinophilia and serum Ig levels using assays described above. […]

Where [3] appears, read: tritiated thymidine incorporation, read-out: PBMC Proliferation ASSAY IC50.
[4] abbreviates: tritiated thymidine incorporation.
Where [5] appears, read: FIG. 11 and FIG. 12, mitogen-stimulated lymphocytes, read-out: IC50 for suppression of lymphocyte aggregation and proliferation.

Take `COC(=O)CC[C@H](C)C1CCC2C3CC[C@@H]4C[C@@H](NCCN)CC[C@]4(C)C3CC[C@@]21C` (some centres unmarked) [S]: the “toxicity remark in PBMC Proliferation ASSAY” value in data set [1] is “toxic”. For the same compound, in data set [1] (setting [3]), the IC50 was less than 0.1 µg/mL. The minimal effective concentration in data set [2] was found to be 10 µg/mL.

Turning to `C[C@@H](COc1ccccn1)C1CCC2C3CC[C@@H]4C[C@@H](NCCN)CC[C@]4(C)C3CC[C@@]21C` (some centres unmarked) [Compound-O], in data set [1] (setting [4]), the “PBMC Proliferation ASSAY IC50” value turned out to be 0.25 µg/mL. In data set [2], the “Aggregation Assay Minimum Effective Conc.” value stood at 10 µg/mL. On to `C[C@@H](COc1ccccn1)C1CCC2C3CC[C@@H]4C[C@@H](N5CCNCC5)CC[C@]4(C)C3CC[C@@]21C` (some centres unmarked) [Compound-P], for which the minimal effective concentration in data set [2] was greater than 10 µg/mL. In the case of `COC(=O)NC[C@@H](C)C1CCC2C3CC[C@H]4C[C@@H](NCCN)CC[C@]4(C)C3CC[C@@]21C` (some centres unmarked) [Compound-H], in data set [1] (setting [3]), the IC50 is 0.26 µg/mL (≈ 0.6 µM). In addition, in data set [1] (setting [4]), the “PBMC Proliferation ASSAY IC50” value amounted to 0.44 µg/mL. With `COC(=O)CC[C@H](C)C1CCC2C3C[C@@H](O)[C@@H]4C[C@@H](NCCCOCCCCOCCCN)CC[C@]4(C)C3CC[C@@]21C` (some centres unmarked) [AF], in data set [1] (setting [3]), the IC50 is 2.41 µg/mL (≈ 4.06 µM). The minimal effective concentration in data set [2] turned out to be 10 µg/mL.

As for `COC(=O)CC[C@H](C)C1CCC2C3CC(O)[C@@H]4C[C@@H](NCCNC(C)C)CC[C@]4(C)C3CC[C@@]21C` (some centres unmarked) [R], the IC50 in data set [1] (setting [3]) turned out to be 0.24 µg/mL (≈ 0.489 µM). For `C[C@H](CC1CCOC1=O)C1CCC2C3CC[C@H]4C[C@@H](NCCN)CC[C@]4(C)C3CC[C@@]21C` (some centres unmarked) [Compound-J], the IC50 in data set [1] (setting [3]) came to 0.03 µg/mL (≈ 0.0675 µM). In addition, the minimal effective concentration in data set [2] worked out at 1 µg/mL.

On to `COC(=O)CC[C@H](C)C1CCC2C3CC[C@@H]4C[C@@H](NCCCNCCCCNCCCN)CC[C@]4(C)C3CC[C@@]21C` (some centres unmarked) [Compound-D], for which the IC50 in data set [1] (setting [5]) worked out at 10 µg/mL (≈ 17.4 µM). Besides, the “suppression of bronchial hyperresponsiveness” value in the data set with D2 naive mice is listed as “effective in suppressing bronchial hyperresponsiveness”. In addition, in data set [2], the minimal effective concentration amounted to 10 µg/mL. Regarding `COC(=O)CC[C@@H](C)C1CCC2C3CC[C@@H]4C[C@@H](NCCN)CC[C@]4(C)C3C[C@H](O)[C@@]21C` (some centres unmarked) [AH], the IC50 in data set [1] (setting [3]) was 0.1 µg/mL (≈ 0.223 µM). Further, the minimal effective concentration in data set [2] is 1 µg/mL. For `COC(=O)CC[C@H](C)C1CCC2C3C(CC[C@@]21C)[C@@]1(C)CC[C@H](NCCN)C[C@H]1C[C@@H]3OC(C)=O` (some centres unmarked) [AD], the IC50 in data set [1] (setting [3]) was 0.29 µg/mL (≈ 0.591 µM). Besides, in data set [2], the minimal effective concentration was determined as 10 µg/mL. Taken in the same sequence, the figures for `COC(=O)CC[C@H](C)C1CCC2C3C(O)C[C@@H]4C[C@@H](NCCN)CC[C@]4(C)C3CC[C@@]21C` (some centres unmarked) [T] were 2.77 µg/mL (≈ 6.17 µM) and 10 µg/mL. As for `COC(=O)CC[C@H](C)C1CCC2C3CC[C@@H]4C[C@@H](NCCNc5ccccc5)CC[C@]4(C)C3C[C@@H](O)[C@@]21C` (some centres unmarked) [Y], in data set [2], the minimal effective concentration was determined as 10 µg/mL. For `C[C@@H](CNS(C)(=O)=O)C1CCC2C3CC[C@@H]4C[C@@H](NCCN)CC[C@]4(C)C3CC[C@@]21C` (some centres unmarked) [Compound-G], the minimal effective concentration in data set [2] turned out to be 10 µg/mL. In the case of `COC(=O)CC[C@H](C)C1CCC2C3CC[C@@H]4C[C@@H](NCCC5CCCN5C)CC[C@]4(C)C3C[C@@H](O)[C@@]21C` (some centres unmarked) [Z], in data set [1] (setting [3]), the IC50 was 0.71 µg/mL (≈ 1.37 µM). Besides, the minimal effective concentration in data set [2] stood at 10 µg/mL.

With `COC(=O)CC[C@H](C)C1CCC2C3CC[C@@H]4C[C@@H](NCCN)CC[C@]4(C)C3C[C@@H](O)[C@@]21C` (some centres unmarked) [AC], in data set [1] (setting [3]), the IC50 was 0.47 µg/mL (≈ 1.05 µM). Also, the minimal effective concentration in data set [2] came out at 10 µg/mL. On to `C[C@@H](CC1CCOC1=O)C1CCC2C3CC[C@@H]4C[C@@H](NCCN)CC[C@]4(C)C3CC[C@@]21C` (mixture of isomers) [Compound-K], for which, in data set [1] (setting [3]), the IC50 is 0.31 µg/mL (≈ 0.697 µM). For the same compound, in data set [2], the minimal effective concentration is 10 µg/mL. On to `CC(C)OC(=O)CC[C@H](C)C1CCC2C3C(O)C[C@@H]4C[C@@H](NCCN)CC[C@]4(C)C3CC[C@@]21C` (some centres unmarked) [U], for which the IC50 in data set [1] (setting [3]) worked out at 0.4 µg/mL (≈ 0.839 µM). Further, the “Aggregation Assay Minimum Effective Conc.” value in data set [2] was in the range of 1 to 10 µg/mL.

As for `C[C@@H](CNS(C)(=O)=O)C1CCC2C3CC[C@@H]4C[C@@H](NCCN)CC[C@]4(C)C3CC[C@@]21C` (some centres unmarked) [Compound-F], the IC50 in data set [1] (setting [3]) amounted to 2.88 µg/mL (≈ 6.35 µM). On to `C[C@H](CCC(=O)O)C1CCC2C3CC[C@@H]4C[C@H](NCCN)CC[C@]4(C)C3C[C@H](O)[C@@]21C` (some centres unmarked) [C], for which the minimal effective concentration in data set [2] is greater than 10 µg/mL.

As for `COC(=O)CC[C@H](C)C1CCC2C3CC[C@@H]4C[C@@H](NCCNC(C)C)CC[C@]4(C)C3C[C@@H](O)[C@@]21C` (some centres unmarked) [AA], the IC50 in data set [1] (setting [3]) was determined as 0.42 µg/mL (≈ 0.856 µM). In data set [2], the minimal effective concentration came out at 10 µg/mL. Taken in the same sequence, the figures for `COC(=O)CC[C@H](C)C1CCC2C3CC[C@@H]4C[C@@H](N)CC[C@]4(C)C3C[C@@H](O)[C@@]21C` (some centres unmarked) [AB] were 2.54 µg/mL (≈ 6.26 µM) and 10 µg/mL. Regarding `CC(C)OC(=O)CC[C@H](C)C1CCC2C3C(O)C[C@@H]4C[C@@H](NCCN)CC[C@]4(C)C3CC[C@@]21C` (some centres unmarked) [V], in data set [1] (setting [4]), the “PBMC Proliferation ASSAY IC50” value was determined as 0.41 µg/mL. The “Aggregation Assay Minimum Effective Conc.” value in data set [2] is 10 µg/mL. Regarding `C[C@H](CC1CCOC1=O)C1CCC2C3CC[C@H]4C[C@@H](N5CCCNCC5)CC[C@]4(C)C3CC[C@@]21C` (some centres unmarked) [Compound-M], the minimal effective concentration in data set [2] is 10 µg/mL. Consider `COC(=O)CC[C@@H](C)C1CCC2C3C[C@@H](O)[C@H]4C[C@H](NCCN)CC[C@]4(C)C3CC[C@@]21C` (some centres unmarked) [AG], for which the minimal effective concentration in data set [2] was 10 µg/mL. Still for that read-out and setting: in the case of `COC(=O)CC[C@H](C)C1CCC2C3CC[C@@H]4C[C@@H](NCc5ccccn5)CC[C@]4(C)C3C[C@@H](O)[C@@]21C` (some centres unmarked) [X] it was 10 µg/mL.

As for `C[C@@H](COc1ccccn1)C1CCC2C3CC[C@@H]4C[C@@H](NCCN)CC[C@]4(C)C3CC[C@@]21C` (some centres unmarked) [Compound-N], in data set [1] (setting [4]), the “PBMC Proliferation ASSAY IC50” value worked out at 0.06 µg/mL. For the same compound, the “Aggregation Assay Minimum Effective Conc.” value in data set [2] is 1 to 10 µg/mL.

On to `COC(=O)CC[C@H](C)C1CCC2C3CC[C@@H]4C[C@@H](NCCN5CCCC5)CC[C@]4(C)C3C[C@@H](O)[C@@]21C` (some centres unmarked) [W], for which, in data set [2], the minimal effective concentration worked out at 10 µg/mL. As to `C[C@H](CCC(=O)O)C1CCC2C3C(CC[C@@]21C)[C@@]1(C)CC[C@H](NCCN)C[C@H]1C[C@H]3O` (some centres unmarked) [E], in data set [1] (setting [5]), the IC50 is greater than 10 µg/mL. In addition, the minimal effective concentration in data set [2] is greater than 10 µg/mL. `COC(=O)CC[C@@H](C)C1CCC2C3C(CC[C@@]21C)[C@@]1(C)CC[C@H](N2CCNCC2)C[C@H]1C[C@H]3O` (some centres unmarked) [AE]: the IC50 in data set [1] (setting [3]) worked out at 0.28 µg/mL (≈ 0.59 µM). Also, the minimal effective concentration in data set [2] was 10 µg/mL.
